Source: US9975907B2, “Pyrimidinones as PI3K inhibitors” (Incyte Corporation, priority 2009, dated 2018)

Tests used:
PI3Kδ (p110δ/p85α) = PI3Kδ (p110δ/p85α) (Homo sapiens (Human), UniProt O00329); experiment: AlphaScreen Assay for PI3Kδ (Assay A1); type: biochemical; settings: column a, 20 μM ATP
From the text: PI3-Kinase luminescent assay kit including lipid kinase substrate, D-myo-phosphatidylinositol 4,5-bisphosphate (PtdIns(4,5)P2)D (+)-sn-1,2-di-O-octanoylglyceryl, 3-O-phospho linked (PIP2), biotinylated I(1,3,4,5)P4, PI(3,4,5)P3 Detector Protein, was purchased from Echelon Biosciences (Salt Lake City, Utah). AlphaScreen™ GST Detection Kit including donor and acceptor beads was purchased from PerkinElmer Life Sciences (Waltham, Mass.). PI3Kδ (p110δ/p85α) was purchased from Millipore (Bedford, Mass.). ATP, MgCb, DTT, EDTA, HEPES and CHAPS were purchased from Sigma-Aldrich (St. Louis, Mo.).
AlphaScreen™ Assay for PI3Kδ
The kinase reaction was conducted in 384-well REMP plate from Thermo Fisher Scientific in a final volume of 40 μL. Inhibitors were first diluted serially in DMSO and added to the plate wells before the addition of other reaction components. The final concentration of DMSO in the assay was 2%. The PI3K assays were carried out at room temperature in 50 mM HEPES, pH 7.4, 5 mM MgCl2, 50 mM NaCl, 5 mM DTT and CHAPS 0.04%. Reactions were initiated by the addition of ATP, the final reaction mixture consisted of 20 μM PIP2, 20 μM ATP, 1.2 nM PI3Kδ were incubated for 20 min. 10 μL of reaction mixture was then transferred to 5 μL 50 nM biotinylated I(1,3,4,5)P4 in quench buffer: 50 mM HEPES pH 7.4, 150 mM NaCl, 10 mM EDTA, 5 mM DTT, 0.1% Tween-20, followed with the addition of 10 μL AlphaScreen™ donor and acceptor beads suspended in quench buffer containing 25 nM PI(3,4,5)P3 detector protein. The final concentration of both donor and acceptor beads is […]. After plate sealing, the plate was incubated in a dark location at room temperature for 2 hours. The activity of the product was determined on Fusion-alpha microplate reader (Perkin-Elmer). IC50 determination was performed by fitting the curve of percent control activity versus the log of the inhibitor concentration using the GraphPad Prism 3.0 software.

PI3Kβ = PI3Kβ (Homo sapiens (Human), UniProt P42338); experiment: PI3K Enzyme Assay A2 ([γ-33P]ATP filter plate), PI3Kβ; type: biochemical; settings: Assay A2, 1000 μM ATP
Experimental: Materials: Lipid kinase substrate, phosphoinositol-4,5-bisphosphate (PIP2), was purchased from Echelon Biosciences (Salt Lake City, Utah). PI3K isoforms α, β, δ and γ were purchased from Millipore (Bedford, Mass.). ATP, MgCh, DTT, EDTA, MOPS and CHAPS were purchased from Sigma-Aldrich (St. Louis, Mo.). The kinase reaction was conducted in clear-bottom 96-well plate from Thermo Fisher Scientific in a final volume of 24 μL. Inhibitors were first diluted serially in DMSO and added to the plate wells before the addition of other reaction components. The final concentration of DMSO in the assay was 0.5%. The PI3K assays were carried out at room temperature in 20 mM MOPS, pH 6.7, 10 mM MgCl2, 5 mM DTT and CHAPS 0.03%. The reaction mixture was prepared containing 50 μM PIP2, kinase and varying concentration of inhibitors. Reactions were initiated by the addition of ATP containing 2.2 μCi [γ-^33P]ATP to a final concentration of 1000 μM. […] Reactions were incubated for 180 min and terminated by the addition of 100 μL of 1 M potassium phosphate pH 8.0, 30 mM EDTA quench buffer. A 100 μL aliquot of the reaction solution was then transferred to 96-well Millipore MultiScreen IP 0.45 μm PVDF filter plate (The filter plate was prewetted with 200 μL 100% ethanol, distilled water, and 1 M potassium phosphate pH 8.0, respectively). The filter plate was aspirated on a Millipore Manifold under vacuum and washed with 18×200 μL wash buffer containing 1 M potassium phosphate pH 8.0 and 1 mM ATP. After drying by aspiration and blotting, the plate was air dried in an incubator at 37° C. overnight. Packard TopCount adapter (Millipore) was then attached to the plate followed with addition of 120 μL Microscint 20 scintillation cocktail (Perkin Elmer) in each well. After the plate sealing, the radioactivity of the product was determined by scintillation counting on Topcount (Perkin-Elmer). IC50 determination was performed by fitting the curve of percent control activity versus the log of the inhibitor concentration using the GraphPad Prism 3.0 software. […] See Table 1 for data related to compounds of the invention.

PI3Kδ (p110δ/p85α), sequence (O00329 whole entry, species assumed): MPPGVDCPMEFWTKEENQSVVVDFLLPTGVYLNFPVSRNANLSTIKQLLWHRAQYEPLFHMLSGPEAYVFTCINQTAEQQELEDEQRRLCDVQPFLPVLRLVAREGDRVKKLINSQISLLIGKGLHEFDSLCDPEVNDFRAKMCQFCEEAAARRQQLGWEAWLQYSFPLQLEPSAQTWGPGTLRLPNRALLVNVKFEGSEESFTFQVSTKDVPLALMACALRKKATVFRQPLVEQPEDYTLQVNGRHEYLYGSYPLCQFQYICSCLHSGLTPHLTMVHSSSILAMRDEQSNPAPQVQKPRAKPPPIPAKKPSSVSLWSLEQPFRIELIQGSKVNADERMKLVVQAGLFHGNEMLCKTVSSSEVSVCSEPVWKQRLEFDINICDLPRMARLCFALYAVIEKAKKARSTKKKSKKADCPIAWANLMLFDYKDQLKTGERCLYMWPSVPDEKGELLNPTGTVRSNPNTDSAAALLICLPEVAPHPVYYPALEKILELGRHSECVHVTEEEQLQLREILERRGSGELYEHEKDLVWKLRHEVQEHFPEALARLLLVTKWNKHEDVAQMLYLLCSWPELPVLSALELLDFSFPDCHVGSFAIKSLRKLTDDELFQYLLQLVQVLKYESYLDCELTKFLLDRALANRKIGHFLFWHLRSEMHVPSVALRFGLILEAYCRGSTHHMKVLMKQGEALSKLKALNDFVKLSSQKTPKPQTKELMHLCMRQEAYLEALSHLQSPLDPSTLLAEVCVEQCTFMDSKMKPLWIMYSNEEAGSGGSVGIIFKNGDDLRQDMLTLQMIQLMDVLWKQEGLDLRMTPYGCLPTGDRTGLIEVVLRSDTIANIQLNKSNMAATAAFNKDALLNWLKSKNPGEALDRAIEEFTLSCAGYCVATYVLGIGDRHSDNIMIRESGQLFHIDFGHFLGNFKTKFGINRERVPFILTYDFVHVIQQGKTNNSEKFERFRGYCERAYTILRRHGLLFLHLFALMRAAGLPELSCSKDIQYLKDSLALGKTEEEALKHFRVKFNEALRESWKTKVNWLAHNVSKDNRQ
PI3Kδ (p110δ/p85α), sequence (P27986 whole entry partner, species assumed): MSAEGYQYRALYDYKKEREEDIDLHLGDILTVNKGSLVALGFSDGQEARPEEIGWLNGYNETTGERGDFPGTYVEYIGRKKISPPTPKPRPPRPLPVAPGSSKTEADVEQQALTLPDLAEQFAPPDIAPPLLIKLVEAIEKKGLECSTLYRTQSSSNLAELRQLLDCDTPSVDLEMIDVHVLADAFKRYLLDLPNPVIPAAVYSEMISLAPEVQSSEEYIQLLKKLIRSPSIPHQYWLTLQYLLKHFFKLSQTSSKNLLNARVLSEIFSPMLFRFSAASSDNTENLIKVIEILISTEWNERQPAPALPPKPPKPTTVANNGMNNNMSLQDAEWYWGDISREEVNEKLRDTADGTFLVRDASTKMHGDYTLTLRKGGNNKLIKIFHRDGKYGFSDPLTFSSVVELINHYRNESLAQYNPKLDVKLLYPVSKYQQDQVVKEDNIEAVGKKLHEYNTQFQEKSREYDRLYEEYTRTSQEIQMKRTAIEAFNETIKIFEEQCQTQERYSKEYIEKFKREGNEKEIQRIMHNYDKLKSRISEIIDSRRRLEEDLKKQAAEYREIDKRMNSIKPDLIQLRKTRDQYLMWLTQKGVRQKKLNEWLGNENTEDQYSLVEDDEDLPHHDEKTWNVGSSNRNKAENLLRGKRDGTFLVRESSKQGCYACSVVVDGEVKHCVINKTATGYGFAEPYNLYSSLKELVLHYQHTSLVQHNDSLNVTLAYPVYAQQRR
PI3Kβ, sequence (P42338 whole entry, species assumed, canonical isoform): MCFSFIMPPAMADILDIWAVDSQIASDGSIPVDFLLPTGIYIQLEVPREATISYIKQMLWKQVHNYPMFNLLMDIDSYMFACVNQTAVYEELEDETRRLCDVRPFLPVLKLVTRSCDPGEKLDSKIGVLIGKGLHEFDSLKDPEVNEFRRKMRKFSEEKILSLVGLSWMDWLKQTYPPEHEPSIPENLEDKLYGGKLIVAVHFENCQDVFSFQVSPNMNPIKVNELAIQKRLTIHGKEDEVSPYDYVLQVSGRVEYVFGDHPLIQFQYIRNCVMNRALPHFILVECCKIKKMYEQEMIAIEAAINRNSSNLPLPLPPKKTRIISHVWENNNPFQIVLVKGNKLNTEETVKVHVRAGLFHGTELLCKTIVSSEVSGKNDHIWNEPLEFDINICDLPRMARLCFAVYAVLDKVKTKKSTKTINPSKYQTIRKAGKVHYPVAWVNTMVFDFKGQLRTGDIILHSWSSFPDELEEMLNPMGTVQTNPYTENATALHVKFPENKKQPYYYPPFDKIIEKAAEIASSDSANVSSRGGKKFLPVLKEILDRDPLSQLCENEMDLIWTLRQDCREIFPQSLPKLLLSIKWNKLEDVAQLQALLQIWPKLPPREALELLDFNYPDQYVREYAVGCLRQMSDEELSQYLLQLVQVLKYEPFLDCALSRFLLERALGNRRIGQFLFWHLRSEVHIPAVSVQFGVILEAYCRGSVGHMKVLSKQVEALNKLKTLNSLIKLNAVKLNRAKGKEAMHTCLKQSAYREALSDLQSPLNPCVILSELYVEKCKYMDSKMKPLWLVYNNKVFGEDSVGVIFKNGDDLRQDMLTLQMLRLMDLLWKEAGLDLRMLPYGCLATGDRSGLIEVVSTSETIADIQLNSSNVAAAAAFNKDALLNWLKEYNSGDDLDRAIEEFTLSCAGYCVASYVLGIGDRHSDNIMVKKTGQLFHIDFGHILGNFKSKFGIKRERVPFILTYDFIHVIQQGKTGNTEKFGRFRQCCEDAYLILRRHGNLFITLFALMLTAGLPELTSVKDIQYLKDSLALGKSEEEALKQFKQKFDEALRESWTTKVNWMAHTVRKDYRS
PI3Kβ, sequence (P27986 whole entry partner, species assumed, canonical isoform): as the sequence (P27986 whole entry partner, species assumed) above

IC50 (PI3Kδ (p110δ/p85α)) [nM]	IC50 (PI3Kβ) [nM]	Structure (SMILES)
< 50	> 500	Cc1csc2nc(C(C)Nc3nc(N)nc4[nH]cnc34)c(-c3cc(F)cc(F)c3)c(=O)n12 (stereo not drawn) [Example 13, 7-{1-[(2-amino-9H-purin-6-yl)amino]ethyl}-6-(3,5-difluorophenyl)-3-methyl-5H-[1,3]thiazolo[3,2-a]pyrimidin-5-one]
< 50	> 500	Cc1csc2nc(C(C)Nc3nc(N)nc4[nH]cnc34)c(-c3cccc(F)c3)c(=O)n12 (stereo not drawn) [Example 11, 7-{1-[(2-amino-9H-purin-6-yl)amino]ethyl}-6-(3-fluorophenyl)-3-methyl-5H-[1,3]thiazolo[3,2-a]pyrimidin-5-one]
< 50	> 500	Cc1csc2nc(C(C)Nc3nc(N)nc4[nH]cnc34)c(-c3ccccc3)c(=O)n12 (stereo not drawn) [Example 9, 7-{1-[(2-amino-9H-purin-6-yl)amino]ethyl}-3-methyl-6-phenyl-5H-[1,3]thiazolo[3,2-a]pyrimidin-5-one]
